In patent US20180163178A1, “AUF1 ENCODING COMPOSITIONS FOR MUSCLE CELL UPTAKE, SATELLITE CELL POPULATIONS, AND SATELLITE CELL MEDIATED MUSCLE GENERATION” (priority 2015, published 2018):

Legend:
MMP9 = MMP9 (Mus musculus, UniProt P41245); conditions: auf1 KO mice
Method: (§1) Male and female mice 4-6 months of age were injected by 20 uL 1.2% BaCl2 in saline directly to the left TA muscle. Right TA muscle was left uninjured. Mice were monitored and sacrificed by protocol for 1-30 days post-injection. 2 mice per genotype per time point were studied.
Data were analyzed with an unpaired t-test.
(§2) KO male and female mice 4 months of age were given an IP injection with 25 mg/kg SB-3CT (Sigma-Aldrich) every 24 h, starting 24 h prior to BaCl2 injury with MMPSense injection. Three mice per treatment were analyzed, then means and standard deviations calculated. Data were analyzed with an unpaired t-test.

[1] = test system: PAX7+ satellite cell population
Method: as §1
Male and female mice 4-6 months of age had their TA removed and preserved in OCT. Skeletal muscle samples were prepared as previously described (Bernet et al., “p38 MAPK Signaling Underlies a Cell-autonomous Loss of Stem Cell Self-renewal in Skeletal Muscle of Aged Mice,” Nature Medicine 20:265-271 (2014), which is hereby incorporated by reference in its entirety). Samples were post-fixed in 4% paraformaldehyde and blocked in 3% BSA in TBS-T. Primary antibodies were incubated at 4° C. overnight. Alexa Fluor donkey 488, 555, and 647 secondary antibodies were used at 1:500 and incubated for 1 hour at room temperature. Slides were sealed with Vectashield with DAPI. The following antibody dilutions were used: rat antibody to Laminin (Sigma, L0663, 1:250), mouse antibody to PAX7 (Santa Cruz Biotechnology, SC-81648, 1:500), goat antibody to hnRNPD (Santa Cruz Biotechnology, SC-22368, 1:250).
Images were acquired using a Zeiss LSM 700 confocal microscope, primarily with the 20× lens. Images were processed and scored using ImageJ64. If needed, color balance was adjusted linearly for the entire image and all images in experimental set. All images were quantified based on field of view. At least 5 images per experimental animal and at least 2 animals per genotype were used for all experiments.
as §2

Chain of MMP9 (P41245 108-730): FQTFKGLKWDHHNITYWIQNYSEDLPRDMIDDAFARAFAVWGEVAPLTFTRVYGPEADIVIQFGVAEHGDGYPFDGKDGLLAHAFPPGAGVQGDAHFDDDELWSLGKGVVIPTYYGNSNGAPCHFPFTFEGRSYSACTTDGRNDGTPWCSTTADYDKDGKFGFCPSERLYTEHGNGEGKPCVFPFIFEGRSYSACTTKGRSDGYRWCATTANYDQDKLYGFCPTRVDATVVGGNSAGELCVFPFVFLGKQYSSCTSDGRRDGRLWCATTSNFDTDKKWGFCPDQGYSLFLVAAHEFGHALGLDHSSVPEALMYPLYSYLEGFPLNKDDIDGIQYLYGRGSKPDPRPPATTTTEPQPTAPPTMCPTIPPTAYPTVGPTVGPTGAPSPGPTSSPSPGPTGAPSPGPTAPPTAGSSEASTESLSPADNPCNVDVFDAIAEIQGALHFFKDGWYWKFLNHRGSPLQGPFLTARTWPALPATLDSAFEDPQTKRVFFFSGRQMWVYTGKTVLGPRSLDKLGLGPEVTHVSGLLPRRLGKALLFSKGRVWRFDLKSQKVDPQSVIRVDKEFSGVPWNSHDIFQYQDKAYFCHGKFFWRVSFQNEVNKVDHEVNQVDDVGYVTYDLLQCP

O=S(=O)(CC1CS1)c1ccc(Oc2ccccc2)cc1 (centres unmarked) [SB-3CT]
reduction in MMP9 activity (bioluminescence analysis, FIG. 11B) (MMP9; SB-3CT IP daily from 24 h prior to BaCl2 TA injury, injured TA 24 h post-injury, vs untreated KO): > 5 fold | MMP9 activity at the site of IP injection (FIG. 11A) (MMP9; SB-3CT IP daily, IVIS imaging): near complete extinction of MMP9 activity | MMP9 activity in the injured TA muscle (FIG. 11A) (MMP9; SB-3CT IP daily, IVIS imaging 24 h after injury): significantly reduced MMP9 activity | expansion of the PAX7+ satellite cell population (FIG. 11C) ([1]; SB-3CT treated auf1 KO mice, 7 days post-injury): significant increased expansion | increase in the PAX7+ satellite cell population (FIG. 11D) ([1]; auf1 KO mice, SB-3CT treatment, 7 days post-injury, vs untreated KO): ~4 fold | muscle wound repair ([1]; injured auf1 KO mice, SB-3CT treatment): restoration of muscle wound repair | muscle fiber morphology (FIG. 11C) ([1]; injured, SB-3CT treated auf1 KO mice): near-normal muscle fibers were evident | Laminin expression (FIG. 11C) ([1]; injured, SB-3CT treated auf1 KO mice, 7 days post-injury): strongly increased
